Laboratory results taken from patent US8518958B2, “Pyrido [2,3-D] pyrimidines and their use as kinase inhibitors” (Forma Therapeutics, Inc., priority 2006, dated 2013).

Assays:
HT-29 tumor cells = assay: Anti-proliferative activity, SRB assay; format: cell-based, human; settings: Homo sapiens, HT-29, 72 h, 72 hours exposure, read-out: CELLULAR IC50 HT-29
In short: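 Cells at 3,000-15,000/well, plated 24 h before compound, exposed to a concentration range for 72 hours. Proliferation measured by SRB staining after cold TCA fixation, absorbance at OD570; IC50 estimated from % inhibition versus DMSO-treated cells.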

B-Raf delta1-415 = B-Raf delta1-415 (Homo sapiens, UniProt P15056); assay: B-Raf kinase inhibition (MAPH filter plate, 33P-ATP, MEK1 substrate); settings: read-out: Biochemical IC50 B-Raf
In short: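 Radiometric filter-binding assay with B-Raf delta1-415 at a level giving 50% turnover, MEK1 substrate and 33P-ATP (12.5 μCi/ml) in 20 mM Mops pH 7.0 with Mg/Mn, 1 h at room temperature. Inhibitor dilution series from 10 μM; EDTA-stopped reactions captured on phosphocellulose filters, counted by scintillation for IC50.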

[1] = target: C-Raf Raf-1 (truncated), active (Homo sapiens, UniProt P04049, Y340D/Y341D); assay: C-Raf kinase inhibition (MAPH assay / IMAP assay); settings: read-out: Biochemical IC50 C-Raf
Description: We characterized the in vitro inhibitory activity against protein kinases of compounds of the present invention by determining their IC50 values (see Table 2).
Kinase: C-Raf Raf-1 (truncated), active (Upstate; cat. no. 14-352)
Reaction Temperature: room temperature
Assay Plate: 96 well U bottom plate (Greiner, 650161)
MultiScreen-PH Plate: 96 well MAPH Filter Plates (Millipore, MAPHNOB50)
Filter Washing Solution: 0.75% H3PO4
Scintillation Liquid: Supermix Liquid Scintillator (PerkinElmer, 1200-439)
Negative Control (C−): 100 mM EDTA, no inhibitor
Positive Control (C+): no inhibitor
Reaction Buffer (Final Concentration):
Final Assay Concentrations:
Kinase: Use kinase conc. yielding 10% ATP turnover as determined in titration experiment.
Adenosine 5′-[γ-^33P]triphosphate: 12.5 μCi/ml (Amersham Biosciences, BF1000)
Substrate: Myelin Basic Protein 57.8 μM (Invitrogen, 13228-010)
Pipetting Sequence: • 1) Add 10 μl 4-fold concentrated substrate+4-fold concentrated ATP in 3-fold concentrated reaction buffer to each well of assay plate • 2) Add 10 μl […] concentrated inhibitor in 4% DMSO in H2O to each well except to C− and C+ wells (starting point: final inhibitor concentration 10 μM; IC50 determination based on dilution series) • 3) Add 10 μl 4% DMSO in H2O to C− and C+ wells • 4) Add 10 μl 500 mM EDTA in H2O to C− wells • 5) Add 10 μl 50 μCi/ml adenosine 5′-[γ-^33P]triphosphate in H2O to each well • 6) Add 10 μl […] concentrated kinase in Reaction Buffer to each well • 7) Incubate 1 hr at room temperature • 8) Add 10 μl 50 mM EDTA in H2O to each well except to C− wells • 9) Prepare MAPH plates by adding 200 μl 0.75% H3PO4 to each well • 10) Exhaust 0.75% H3PO4 using Millipore vacuum station • 11) Add 60 μl 0.75% H3PO4 to each well of MAPH filter plate • 12) Transfer 30 μl sample per well from assay plate to corresponding well of MAPH filter plate • 13) Incubate 30 min at room temperature • 14) Wash each well of MAPH filter plates 3× with 200 μl 0.75% H3PO4 using Millipore vacuum station • 15) Add 20 μl scintillation liquid to each well of MAPH filter plate • 16) Seal MAPH filter plate • 17) Store MAPH filter plate 30 min in darkness • 18) Quantify radioactivity using scintillation counter (MicroBeta, Perkin-Elmer)
Reaction Volume: 8.0108 μl
IMAP Incubation Time: 60 min
Assay Plate: 384 well U bottom, PP, black, low volume (Corning, 3676)
Compound Plate: 384 well U bottom, PS (Falcon, 3995)
IMAP Binding Buffer A: Molecular Devices, R7282
IMAP Binding Buffer B: Molecular Devices, R7283
IMAP Binding Reagent: Molecular Devices, R7207
Negative Control (C−): no kinase, no inhibitor
Reation buffer: 20 mM Hepes, pH 7.5 • 1 mM DTT • 10 mM MnCl2 • 0.01% Brij35
Kinase: Kinase conc. yielding 50% substrate turnover as determined in titration experiment • c-Raf (Upstate 14-352)
Substrate: 5F1-SGQLIDSMANSFV-NH2 400 nM (jpt Peptide Technologies GmbH, Berlin, Germany)
IMAP Binding Solution: 75% IMAP Binding Buffer A • 25% IMAP Binding Buffer B • IMAP Binding Reagent 1:800
Pipetting Sequence: • 1) Add 6 μl 1.33-fold concentrated substrate+1.33-fold concentrated ATP in 1-fold concentrated reaction buffer to each well of assay plate • 2) Add 10.8 nl 740-fold concentrated inhibitor in 100% DMSO to each well except to C− and C+ wells using pintool (CyBio, Jena, Germany) (starting point: final inhibitor concentration 10 μM; IC50 determination based on dilution series) • 3) Add 10.8 nl 100% DMSO to C− and C+ wells using pintool • 4) Add 2 μl reaction buffer to C− wells • 5) Add 2 μl 4-fold concentrated kinase in reaction buffer to each well except C− wells • 6) Incubate according to reaction time at room temperature • 7) Add 15 μl IMAP binding solution to each well • 8) Incubate according to IMAP incubation time at room temperature • 9) Measure fluorescence polarization (Analyst GT, Molecular Devices)

C-Raf Raf-1 (truncated), active, sequence (P04049 306-648 Y340D/Y341D): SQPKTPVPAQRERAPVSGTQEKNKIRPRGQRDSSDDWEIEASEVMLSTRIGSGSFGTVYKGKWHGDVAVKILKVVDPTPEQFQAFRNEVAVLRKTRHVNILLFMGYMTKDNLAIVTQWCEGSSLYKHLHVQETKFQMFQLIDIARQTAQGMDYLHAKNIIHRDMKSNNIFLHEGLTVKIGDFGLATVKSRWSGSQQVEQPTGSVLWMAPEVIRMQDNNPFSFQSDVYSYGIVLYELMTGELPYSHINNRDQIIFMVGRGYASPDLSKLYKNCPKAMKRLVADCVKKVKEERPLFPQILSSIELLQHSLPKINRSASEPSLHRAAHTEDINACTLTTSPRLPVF
B-Raf delta1-415, sequence (P15056 416-766): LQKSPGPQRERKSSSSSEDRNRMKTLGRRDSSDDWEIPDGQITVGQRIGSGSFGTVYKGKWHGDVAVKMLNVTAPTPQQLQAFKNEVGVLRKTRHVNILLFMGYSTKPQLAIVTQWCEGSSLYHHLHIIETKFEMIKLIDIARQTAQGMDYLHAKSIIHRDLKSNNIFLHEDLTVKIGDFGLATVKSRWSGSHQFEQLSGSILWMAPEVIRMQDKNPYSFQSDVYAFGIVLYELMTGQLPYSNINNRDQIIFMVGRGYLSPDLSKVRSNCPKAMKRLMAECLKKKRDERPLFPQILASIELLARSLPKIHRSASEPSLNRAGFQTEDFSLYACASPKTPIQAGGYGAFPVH

IC50 (HT-29 tumor cells) [nM] | IC50 (B-Raf delta1-415) [nM] | IC50 [1] [nM] | Compound
< 1000 | < 1000 | < 100 | CC(=O)NCCCOn1c(=O)c(-c2c(Cl)cccc2Cl)cc2cnc(Nc3ccccc3)nc21 [Compound 57, 8-(3-Acetylaminopropyl)oxy-6-(2,6-dichlorophenyl)-2-phenylamino-pyrido[2,3-d]pyrimidin-7-one]
< 1000 | < 100 | < 100 | CCOn1c(=O)c(-c2c(F)cccc2Cl)cc2cnc(Nc3ccc(N4CCN(C)CC4)cc3)nc21 [Compound 51, 6-(2-Chloro-6-fluorophenyl)-8-ethoxy-2-(4-(4-methylpiperazino)-phenylamino)-pyrido[2,3-d]pyrimidin-7-one]
< 1000 | < 500 | < 100 | COCCOn1c(=O)c(-c2c(Cl)cccc2Cl)cc2cnc(Nc3cccc(OC)c3)nc21 [Compound 68, 6-(2,6-Dichlorophenyl)-8-(2-methoxyethyl)oxy-2-(3-methoxyphenyl)amino-pyrido[2,3-d]pyrimidin-7-one]
< 1000 | < 100 | < 100 | COn1c(=O)c(-c2c(Cl)cccc2Cl)cc2cnc(Nc3cc(C(=O)NCCN(C)C)n(C)c3)nc21 [Compound 67, 6-(2,6-Dichlorophenyl)-2-(5-(2-dimethylaminoethyl)aminocarbonyl-1-methyl-pyrrol-3-yl)-amino-8-methoxy-pyrido[2,3-d]pyrimidin-7-one]
< 1000 | < 100 | < 100 | COc1cccc(Nc2ncc3cc(-c4c(F)cccc4Cl)c(=O)n(OC[C@@H](O)CO)c3n2)c1 [Compound 75, 6-(2-Chloro-6-fluorophenyl)-8-(2-(S)-2,3-dihydroxypropyl)oxy-2-(3-methoxyphenyl)amino-pyrido[2,3-d]pyrimidin-7-one]
< 1000 | < 500 | < 100 | COn1c(=O)c(-c2ccc(Cl)cc2Cl)cc2cnc(Nc3ccc(N4CCN(C)CC4)cc3)nc21 [Compound 19, 6-(2,4-Dichlorophenyl)-8-methoxy-2-(4-(4-methylpiperazino)-phenylamino)-pyrido[2,3-d]pyrimidin-7-one]
< 10000 | < 500 | < 100 | COCCNc1ncc2cc(-c3cc(NC(=O)c4ccccc4)ccc3Cl)c(=O)n(OC)c2n1 [Compound 33]
< 1000 | < 100 | < 100 | COn1c(=O)c(-c2c(F)cccc2Cl)cc2cnc(Nc3ccc(N4CCN(C)CC4)cc3)nc21 [Compound 25, 6-(2-Chloro-6-fluorophenyl)-8-methoxy-2-(4-(4-methylpiperazino)-phenylamino)-pyrido[2,3-d]pyrimidin-7-one]
< 1000 | < 500 | < 100 | COCCOn1c(=O)c(-c2ccccc2Cl)cc2cnc(Nc3ccccc3)nc21 [Compound 20]
< 1000 | < 100 | < 100 | COn1c(=O)c(-c2c(C)cccc2C)cc2cnc(Nc3ccc(N4CCN(C)CC4)cc3)nc21 [Compound 38, 6-(2,6-Dimethylphenyl)-8-methoxy-2-(4-(4-methylpiperazino)-phenylamino)-pyrido[2,3-d]pyrimidin-7-one]

The remaining lines, values behind:

Compound | IC50 (HT-29 tumor cells) [nM] | IC50 (B-Raf delta1-415) [nM] | IC50 [1] [nM]
COc1cccc(Nc2ncc3cc(-c4c(Cl)cccc4Cl)c(=O)n(OCCCN)c3n2)c1 [Compound 71, 8-(3-Aminopropyl)oxy-6-(2,6-dichlorophenyl)-2-(3-methoxyphenyl)amino-pyrido[2,3-d]pyrimidin-7-one] | < 1000 | < 100 | < 100
COn1c(=O)c(-c2c(F)cccc2Cl)cc2cnc(Nc3ccc(OCCN(C)C)cc3)nc21 [Compound 8, 6-(2-Chloro-6-fluorophenyl)-8-methoxy-2-(4-(2-dimethylaminoethoxy)-phenylamino)-pyrido[2,3-d]pyrimidin-7-one] | < 1000 | < 100 | < 100
CN1CCN(c2ccc(Nc3ncc4cc(-c5c(F)cccc5Cl)c(=O)n(O)c4n3)cc2)CC1 [Compound 241] | < 1000 | < 500 | > 1000
NCCCCOn1c(=O)c(-c2c(Cl)cccc2Cl)cc2cnc(Nc3ccccc3)nc21 [Compound 34, 8-(4-Aminobutoxy)-6-(2,6-dichlorophenyl)-2-phenylamino-pyrido[2,3-d]pyrimidin-7-one] | < 1000 | < 1000 | < 100
NCCCCOn1c(=O)c(-c2c(Cl)cccc2Cl)cc2cnc(Nc3cccc(S(N)(=O)=O)c3)nc21 [Compound 40, 8-(4-Aminobutoxy)-6-(2,6-dichlorophenyl)-2-(3-sulfamoylphenylamino)-pyrido[2,3-d]pyrimidin-7-one] | > 10000 | < 100 | < 100
COn1c(=O)c(-c2cccc(NC(C)=O)c2)cc2cnc(Nc3ccccc3)nc21 [Compound 62] | < 10000 | < 10000 | < 100
COn1c(=O)c(-c2cc(N)ccc2Cl)cc2cnc(Nc3ccccc3)nc21 [Compound 23, 6-(5-Amino-2-chlorophenyl)-8-methoxy-2-phenylamino-pyrido[2,3-d]pyrimidin-7-one] | < 10000 | < 500 | < 100
COn1c(=O)c(-c2ccc(Cl)cc2Cl)cc2cnc(Nc3ccc(OCCN(C)C)cc3)nc21 [Compound 16, 6-(2,4-Dichlorophenyl)-8-methoxy-2-(4-(2-dimethylaminoethoxy)-phenylamino)-pyrido[2,3-d]pyrimidin-7-one] | < 1000 | < 500 | < 500
COn1c(=O)c(-c2c(Cl)cccc2Cl)cc2cnc(Nc3ccc(N4CCN(C)CC4)cc3)nc21 [Compound 14, 6-(2,6-Dichlorophenyl)-8-methoxy-2-(4-(4-methylpiperazino)-phenylamino)-pyrido[2,3-d]pyrimidin-7-one] | < 1000 | < 100 | < 100
COn1c(=O)c(-c2ccccc2Cl)cc2cnc(Nc3cccc(CO)c3)nc21 [Compound 5, 6-(2-Chlorophenyl)-8-methoxy-2-(3-hydroxymethylphenylamino)-pyrido[2,3-d]pyrimidin-7-one] | < 1000 | < 500 | < 100
COn1c(=O)c(-c2c(C)cccc2C)cc2cnc(Nc3cccc(S(N)(=O)=O)c3)nc21 [Compound 72, 6-(2,6-Dimethylphenyl)-8-methoxy-2-(3-sulfamoylphenylamino)-pyrido[2,3-d]pyrimidin-7-one] | < 1000 | – | < 100
